{"source": "patent US11680264B2", "about": "“Methods of modulating melanosome pH and melanin level in cells” (Cornell University, priority 2016, dated 2023)", "key": {"[1]": {"tested_on": "sAC^FF mouse melanocytes", "experiment": "DAMP melanosome pH assay (HMB45 co-staining)", "type": "cell-based", "conditions": "sAC^FF mouse melanocytes; for melanosome pH (DAMP uptake at HMB45 positive melanosomes), substance alone: 4 hours, KH7 30 μM, cAMP 500 μM, H89 10 μM, PKI 10 μM, ESI-09 10 μM", "description": "(§1) N-{3-[(2,4-dinitrophenyl)amino]propyl}-N-(3-aminopropyl)methylamine dihydrochloride (DAMP) is a weakly basic amine that is taken up in acidic organelles of live cells and which has been used to measure melanosome pH (Bin et al., PLOS One, 10(6):e0129273 (2015); Tabata et al., Cell Tissue Res., 332(3): 447-460 (2008)). Cells were cultured on sterile glass coverslips in 24-mm wells at 50×10^3 cells/coverslip. […] After permeabilization with 0.1% Triton X-100 in Buffer A at −20° C., the cells were labeled with the supplied anti-DNP antibody (Oxford Biomedical Research) according to kit protocol. Melanosomes were identified using the monoclonal antibody (anti-HMB45, 1:40, Santa Cruz Biotechnology). Fluorescence was detected after secondary staining with Alexa Fluor 546 donkey anti-goat IgG antibody (Invitrogen) and Alexa Fluor 647 donkey anti-mouse IgG antibody (Invitrogen). All quantitative analyses were performed using the Object Count tool in Nikon AR 4.60. For each image, the lower intensity threshold limit of each fluorescence channel was defined as the intensity of the dimmest punctum returned using the 3 points circle threshold tool. The upper intensity threshold limit was set to the maximum value. Equivalent diameter (EqDiameter) was restricted to 1.85-30.00 pixels. Circularity was restricted to 0.20-1.00. Mean fluorescence intensity was measured for all DAMP^+ puncta. Melanosomes were identified as HMB45^+ puncta. DAMP measurements were only recorded when colocalized with HMB45. Frequency distributions were generated for each sample from mean DAMP fluorescence intensity of DAMP^+ melanosomes. All analyses were performed on two replicate coverslips (n≥15 cells per coverslip). Melanosomes were first identified as TRP1^+ or tyrosinase^+ puncta. sAC^+ melanosomes were identified as R52^+ or R21^+ puncta colocalizing with TRP1^+ or tyrosinase^+ puncta. The degree of colocalization between sAC and melanosomes was calculated as the number of sAC+ melanosomes divided by the total number of melanosomes and expressed as a percentage.\n(§2) The effect of pharmacologic inhibition of sAC was also measured using the DAMP assay described above. Briefly, Cells were cultured on sterile glass coverslips in 24-mm wells at 50×10^3 cells/coverslip and treated or not treated for 4 hours with 30 μM KH7 or LRE1. […] After permeabilization with 0.1% Triton X-100 in Buffer A at −20° C., the cells were labeled with the supplied anti-DNP antibody (Oxford Biomedical Research) according to kit protocol. Melanosomes were identified using the monoclonal antibody (anti-HMB45, 1:40, Santa Cruz Biotechnology). Fluorescence was detected after secondary staining with Alexa Fluor 546 donkey anti-goat IgG antibody (Invitrogen) and Alexa Fluor 647 donkey anti-mouse IgG antibody (Invitrogen). All images were acquired using a Zeiss LSM 880 and analyzed using NIS-Elements AR 4.60 (Nikon)."}, "[2]": {"tested_on": "sAC^KO mouse melanocytes", "experiment": "DAMP melanosome pH assay (HMB45 co-staining)", "type": "cell-based", "conditions": "4 hours; for melanosome pH (DAMP), substance alone: KH7 30 μM, cAMP analogs 500 μM, ESI-09 10 μM, MSH 100 nM; for effect on cAMP-dependent rescue of melanosome pH (DAMP): co-incubation with cAMP [Sp-8-CPT-cAMPs], 10 μM", "description": "as §1, §2"}, "[3]": {"tested_on": "human melanocytes", "experiment": "DAMP melanosome pH assay (HMB45 co-staining)", "type": "cell-based", "conditions": "for melanosome pH (DAMP), substance alone: 4 hours, KH7 30 μM, cAMP 500 μM, H89 10 μM, ESI-09 10 μM", "description": "as §1\nThe effect of sAC inhibition on melanosome pH was also assessed in human melanocytes."}, "[4]": {"tested_on": "human melanocytes", "experiment": "Cellular eumelanin content", "type": "cell-based", "conditions": "48 hours, KH7 30 μM, ESI-09 10 μM", "description": "(§3) FIGS. 15A-15J provide the results of experiments analyzing the effect of sAC activity on melanin production. FIG. 15A is a graph illustrating the cellular eumelanin and pheomelanin content in sAC^FF (FF) and sAC^KO (KO) mouse melanocytes. Numbers above bars represent the ratio of pheomelanin to eumelanin. Average of triplicate determinations. FIG. 15B is a graph illustrating the cellular eumelanin content of sAC^FF and sAC^KO mouse melanocytes grown for 96 hours in the absence (−, DMSO) or presence of KH7 (+, 30 μM). Average of triplicate determinations. FIG. 15C is a graph illustrating the fold over baseline cellular eumelanin level of human melanocytes (n=8) treated with KH7 (30 μM) or vehicle (DMSO) for 48 hours. All assays performed in triplicate. Students t-test **P<0.01, ****P<0.0001. FIG. 15D is images of cell pellets of sAC^FF and sAC^KO mouse melanocytes. FIG. 15E is a graph of the melanin levels of pairs of sAC^FF and sAC^KO mouse melanocytes. FIGS. 15F and 15G are images of cell pellets of sAC^FF mouse melanocytes grown in the absence (DMSO, FIGS. 15G and 15F, left panels) or presence of KH7 (FIG. 15G, 30 μM, right panel) or LRE1 (FIG. 15F, 50 μM, right panel) for 96 hours. FIG. 15H is images of cell pellets of human melanocytes (C226, C38) treated with vehicle control (DMSO, left) or KH7 (30 μM, right) for 48 hours. FIG. 15I is images of cell pellets of human melanocytes (C226) treated with vehicle control (DMSO, left) or ESl-09 (10 μM, right) for 48 hours. FIG. 15J is a graph illustrating the fold over baseline cellular (eumelanin) level of human melanocytes treated with ESl-09 (10 μM) or vehicle (DMSO) for 48 hours (n=3, distinct human cell lines). For FIGS. 15E and 15J Students t-test, *p<0.05, **p<0.01, ****p<0.0001."}, "[5]": {"tested_on": "PKA targeted proteins", "experiment": "Western blot of PKA substrate phosphorylation", "type": "cell-based", "conditions": "mouse and human melanocytes, 4 hours"}, "[6]": {"tested_on": "sAC^FF mouse melanocytes", "experiment": "LysoSensor Yellow/Blue DND-160 organelle pH assay", "type": "cell-based", "conditions": "30 μM, 4 hours", "description": "(§4) To determine the pH of the sAC^KO and sAC^FF melanocytes the pH-sensitive vital dye LysoSensor Yellow/Blue DND-160 (Bellono et al. Sci Rep., 6:26570 (2016)) was used. Briefly, cells were incubated with 1 μM LysoSensor DND-160 (Invitrogen) for 5 minutes at 37° C. Lysosensor was excited at 405 nm and its emission detected at 417-483 nm (W1) and 490-530 nm (W2). The ratio of emissions (W1/W2) in Lysosensor-stained puncta was assigned to a pH value based on a calibration curve generated for each experiment using solutions containing 125 mM KCl, 25 mM NaCl, 24 μM monensin, and varying concentrations of MES to adjust the pH to 4, 4.5, 5.0, 5.5, 6.0, 6.5, 7.0, 7.5. The fluorescence ratio was linear for pH 5.0-7.0.\nas §4, with “The effect” for “To determine the pH”, “pharmacologic inhibition of sAC was examined using” for “the sAC^KO and sAC^FF melanocytes”, “vial” for “vital”, “assay, described above.” for “(Bellono et al. Sci Rep., 6:26570 (2016)) was used.”, “Briefly, cultured sAC^FF melanocytes were treated for 4 hours with 30 μM KH7, 30 μM LRE1, or control (untreated). The” for “Briefly,”"}, "[7]": {"tested_on": "sAC^KO mouse melanocytes", "experiment": "LysoSensor Yellow/Blue DND-160 organelle pH assay", "type": "cell-based", "conditions": "30 μM, 4 hours", "description": "as §4\nas §4, with “The effect” for “To determine the pH”, “pharmacologic inhibition of sAC was examined using” for “the sAC^KO and sAC^FF melanocytes”, “vial” for “vital”, “assay, described above.” for “(Bellono et al. Sci Rep., 6:26570 (2016)) was used.”, “Briefly, cultured sAC^FF melanocytes were treated for 4 hours with 30 μM KH7, 30 μM LRE1, or control (untreated). The” for “Briefly,”"}, "[8]": {"tested_on": "sAC^FF mouse melanocytes", "experiment": "Cellular eumelanin content", "type": "cell-based", "conditions": "KH7 30 μM or LRE1 50 μM, 96 hours", "description": "as §3"}, "[9]": {"tested_on": "sAC^KO mouse melanocytes", "experiment": "Cellular eumelanin content", "type": "cell-based", "conditions": "96 hours", "description": "as §3"}, "[10]": {"tested_on": "C3H/HeJ mice", "experiment": "Topical treatment of epilated back skin, hair pigmentation", "type": "in vivo, mouse", "description": "Therefore, experiments were performed to determine whether inhibition of sAC in animals could alter hair pigmentation. Animal experiments were performed in accordance with approved Institutional Animal Care and Use Committee protocol at Weill Cornell Medicine. Age and gender matched C3H/HeJ mice (female, 7 weeks old) were purchased from The Jackson Laboratory. For the analysis of hair pigmentation, the upper and lower dorsum of each mouse were epilated using hair removal wax. 10 μl of KH7 (42 mg/ml in DMSO), LRE1 (28 mg/ml in DMSO) or DMSO (vehicle control) was topically applied onto the upper back and DMSO was applied to the lower back three times a day over two weeks. These mice were monitored for changes in coat color as the epilated hair grew back. Hair was removed from each treated area after 3 weeks to measure the length of the total hair, apical black tip and subapical agouti (pheomelanin) band under a stereo microscope. Mice were euthanized and the treated skin was submitted to a blinded animal pathologist for histological evaluation of the epidermis and hair follicles. This experiment was performed twice with 3-4 mice per cohort (total n=6-7)"}, "[11]": {"tested_on": "C3H/HeJ mice", "experiment": "Topical treatment of ear, epidermal pigmentation (Fontana Masson)", "type": "in vivo, mouse", "conditions": "topical on right ear, twice a day for two weeks", "description": "Melanocytes also exist in the epidermis at specific areas of mouse skin (e.g., pinnae) (Nordlund et al., Dermatol Clin., 4(3): 407-418 (1986)); thus, these areas were studied to examine the role of sAC in epidermal pigmentation. For analysis of epidermal pigmentation, using C3H/HeJ mice as above, 20 μl of KH7 ([…]), LRE1 (28 mg/ml) or DMSO (vehicle control) was topically applied on the right ear and DMSO was topically applied on the left ear twice a day for two weeks. Ear skin was monitored daily for irritation and changes in pigmentation. After two weeks, mice were euthanized and the treated skin was submitted to a blinded animal pathologist for histological evaluation of the epidermis and special stains (Fontana Masson). This experiment was performed twice with 3 mice per cohort (total n=6)"}, "[12]": {"conditions": "co-incubation with 30 μM KH7, 4 hours, cAMP analogs 500 μM, MSH 100 nM"}, "[13]": {"conditions": "topical on back, hair removed after 3 weeks"}}, "data": [{"molecule": "CC(C)(C)c1cc(C(=O)C(C#N)=NNc2cccc(Cl)c2)no1", "note": "[ESI-09, 3-(5-tert-butyl-isoxazol-3-yl)-2-((3-chlorophenyl)-hydrazono)-3-oxo-propionitrile]", "values": [{"measurement": "melanosome pH (DAMP uptake at HMB45 positive melanosomes), substance alone", "setting": "[1]", "value": "elevated melanosome pH"}, {"measurement": "melanosome pH (DAMP), substance alone", "setting": "[2]", "value": "had no effect on melanosome pH"}, {"measurement": "melanosome pH (DAMP), substance alone", "setting": "[3]", "value": "elevated melanosome pH"}, {"measurement": "eumelanin level", "setting": "[4]", "value": "induced an increase in eumelanin level"}]}, {"molecule": "O=S(=O)(NCCNC/C=C/c1ccc(Br)cc1)c1cccc2cnccc12", "note": "[H89]", "values": [{"measurement": "melanosome pH (DAMP uptake at HMB45 positive melanosomes), substance alone", "setting": "[1]", "value": "had no effect on melanosome pH"}, {"measurement": "effect on cAMP-dependent rescue of melanosome pH (DAMP)", "setting": "[2]", "value": "did not block the cAMP-dependent rescue of melanosome pH"}, {"measurement": "melanosome pH (DAMP), substance alone", "setting": "[3]", "value": "had no effect on melanosome pH"}, {"measurement": "phosphorylation of PKA targeted proteins", "setting": "[5]", "value": "dramatic reduction in the phosphorylation of PKA targeted proteins"}]}, {"molecule": "CO[C@H]1C2OP(=O)(O)OC[C@H]2O[C@H]1n1c(Sc2ccc(O)cc2)nc2c(N)ncnc21", "note": "(stereo partly shown) [8-pHPT-2′-O-Me-cAMP, 8-(4-Hydroxyphenylthio)-2′-O-methyladenosine-3′, 5′-cyclic monophosphate]", "values": [{"measurement": "effect on KH7-induced alkaline shift in melanosome pH (DAMP)", "setting": "[1]; [12]", "value": "mitigate the KH7-induced alkalization of melanosome pH"}, {"measurement": "melanosome pH (DAMP), substance alone", "setting": "[2]", "value": "sufficient to induce melanosome acidification"}, {"measurement": "effect on KH7-induced alkaline shift in melanosome pH (DAMP)", "setting": "[3]; [12]", "value": "mitigate the KH7-induced alkalization of melanosome pH"}]}, {"molecule": "LRE1", "values": [{"measurement": "pH of LysoSensor-visualized organelles", "setting": "[6]", "value": "induced an alkaline pH shift"}, {"measurement": "pH of LysoSensor-visualized organelles", "setting": "[7]", "value": "had no effect"}, {"measurement": "eumelanin levels", "setting": "[8]", "value": "increased eumelanin levels"}, {"measurement": "eumelanin levels", "setting": "[9]", "value": "had no effect"}, {"measurement": "eumelanin production in hair (microscopic examination)", "setting": "[10]; [13]", "value": "increase in eumelanin production"}, {"measurement": "length of the agouti (pheomelanin) band", "setting": "[10]; [13]", "value": "reduction in length of the agouti (pheomelanin) band"}, {"measurement": "histologic examination of treated skin", "setting": "[10]; topical on back, two weeks", "value": "did not reveal any pathological change to the hair follicles or epidermis"}, {"measurement": "colour of regrown hair versus vehicle control", "setting": "[10]; topical on epilated back, 10 μl KH7 42 mg/ml or LRE1 28 mg/ml in DMSO, three times a day over two weeks", "value": "visual darkening of regrown hair"}, {"measurement": "colour of ear epidermis relative to vehicle control", "setting": "[11]; 20 μl KH7 or LRE1 (28 mg/ml)", "value": "induced visual darkening of mouse ear epidermis"}, {"measurement": "epidermal melanin accumulation (Fontana Masson)", "setting": "[11]", "value": "increase in epidermal melanin accumulation"}]}, {"molecule": "C[C@@H]1C[C@@H]([C@H](O)CC2CC(=O)NC(=O)C2)C(=O)[C@@H](C)C1", "note": "[cycloheximide]", "values": [{"measurement": "effect on cAMP-dependent rescue of melanosome pH (DAMP)", "setting": "[2]", "value": "did not block the ability of cAMP to rescue pH following sAC inhibition"}]}]}
